Measurements taken from the NIST ThermoML archive (doi:10.1016/j.fluid.2012.12.036).

Details: Crystal; for vapor or sublimation pressure: Calculated from knudsen effusion weight loss; for Normal melting temperature: visual observation

Brc1ccc2cc3ccccc3cc2c1 [anthracene, 2-bromo-]
Details | Normal melting temperature [°C] | vapor or sublimation pressure [kPa]
– | 220.70 | –
334.8 K | – | 5.41e-06
339.8 K | – | 9.21e-06
344.9 K | – | 1.56e-05
350 K | – | 2.61e-05
355 K | – | 4.15e-05
360.1 K | – | 7.18e-05
365.2 K | – | 0.000114
370.4 K | – | 0.000184
375.3 K | – | 0.000287
380.4 K | – | 0.000437
385.4 K | – | 0.000652
390.4 K | – | 0.000887

c1ccc2cc3ccccc3cc2c1 [anthracene]
Details | Normal melting temperature [°C] | vapor or sublimation pressure [kPa]
– | 216.90 | –
322.9 K | – | 1.82e-05
328 K | – | 2.97e-05
333 K | – | 5.58e-05
338.1 K | – | 8.91e-05
343.1 K | – | 0.000146
348.2 K | – | 0.000233

Brc1c2ccccc2cc2ccccc12 [9-bromoanthracene]
Details | Normal melting temperature [°C] | vapor or sublimation pressure [kPa]
– | 101.00 | –
314.8 K | – | 5.1e-06
319.8 K | – | 1.06e-05
324.8 K | – | 1.71e-05
329.8 K | – | 3.26e-05
334.9 K | – | 5.32e-05
339.9 K | – | 9.3e-05
345 K | – | 0.000158
350 K | – | 0.000261
355 K | – | 0.000418
